# From a melting point compilation (Tetko et al.; mined from patent text by program, amines drawn as free bases though some values may be those of a salt)
row,Structure (SMILES),melting point [°C]
1,CN(C(=O)c1ccc2nonc2c1)[C@H]1CC[C@H](N)CC1,145 to 146
2,CCOC(=O)/C=C/c1ccc(OCOC)cc1Oc1ccc(C(F)(F)F)cn1,69 to 70
3,CC1(C)N=C(N)N=C(N)N1OCc1cccc2ccccc12,170 to 171
4,CC(=O)OC1CSC(Sc2cccc(C#N)c2)C(OC(C)=O)C1OC(C)=O (configuration not stated),133
5,COc1cc(Nc2ccccn2)ccc1C(N)=O,226 to 227
6,COc1ccc(C=CC(=O)NCCc2ccc(I)c(S(N)(=O)=O)c2)c(OC)c1,180
7,CON1C=C2N=Nc3cc(C)cnc3N2C1,213 to 214
8,COc1cnc2[nH]cc(/C=C3\N=C(NCC4CC4)NC3=O)c2c1,280 to 286
9,Cc1cc(NCCO)n2ncc([N+](=O)[O-])c2n1,231
10,CC1(C)OCCN1C(=O)C=Cc1ccc(F)cc1,106 to 108
11,CC(C)(C)OC(=O)NC1Cc2cccc(c2)CC(C(=O)O)NC(=O)CNC1=O (configuration not stated),> 250
12,COc1cc2ncnc(NC3=CC(=O)C4(C(C)C)OC4C3=O)c2cc1OC (configuration not stated),188 to 190
13,O=C(NC1CC1)c1cccc(-c2cccc3oc(Cc4cccc(C(F)(F)F)c4)cc23)c1,120 to 121
14,CCNC(=O)c1nc(-c2ccccc2)c(-c2ccc(=O)n(C(C)C)n2)s1,172 to 174
15,Cc1nn2c(=O)c(CCN3CCC(n4ccc5cc(F)ccc54)CC3)c(C)nc2s1,194
16,Cc1cc(-c2cc3cc(OCCNC[C@H](O)c4cccc(Cl)c4)ccc3o2)no1,108 to 110
17,COc1ccc(C(=O)O)cc1C12CC3CC(CC(C3)C1)C2,238 to 239
18,COc1cc2c(CC#N)c[nH]c2cc1F,97 to 98
19,CSc1nc(Cl)c(C(Cl)Cl)c(Cl)n1,66
20,CC(Oc1ncn(-c2cccc(Cl)c2)n1)C(=O)N(C)C (configuration not stated),136 to 139
21,Cc1cccc(C2=C(c3ccc(S(C)(=O)=O)cc3)OC3(CCCCC3)C2=O)c1,154 to 155
22,COC(=O)CN(CC(=O)OC)S(=O)(=O)c1ccc(C)cc1,99 to 100
23,N=C(N)Nc1ccc(S(=O)(=O)N2CCOCC2)cc1,102 to 105
24,COc1cccc(OCC2CC2)c1-c1cc(C(=O)C2(C(=O)O)C3CC4CC(C3)CC2C4)nn1-c1ccnc2cc(Cl)ccc12 (configuration not stated),200
25,CC(C)(C)OC(=O)NCCCCC(=O)Nc1ccc(OCc2ccccc2)c(C(=O)NCCC(=O)OCc2ccccc2)c1,97 to 99

row,Structure (SMILES),melting point [°C]
1,CNC(=O)N(OC)c1ccc(Oc2ccc3sncc3c2)cc1,108
2,CC(C)C[C@H](O)C(=O)N[C@@H](C)C(=O)N[C@@H]1C(=O)NCCS[C@@H]1c1ccccc1,93 to 99
3,CN(C)C(=S)SC(C[N+](=O)[O-])c1ccc(Br)cc1 (configuration not stated),79 to 81
4,CCCCCc1ccc(CCc2ccc(-c3ccc(CC)cc3F)cc2)cc1,40
5,CC(=O)Nc1ccc(-c2ccc(C(C)O)o2)cc1 (configuration not stated),175 to 177
6,C1CNCCN2CCOCCOCCN(CCN1)CCOCCOCC2,69
7,Clc1cnn2c(-c3ccncc3)ccnc12,183 to 184
8,COC(=O)Nc1ccc(CN2CCC(C(O)(c3ccc(OC(F)(F)F)cc3)c3ccc(OC(F)(F)F)cc3)CC2)cc1,178 to 182
9,CC(c1cc(Cl)ccc1N1CCCC1)C(C(N)=O)c1ccc(C(=O)O)cc1 (configuration not stated),202 to 204
10,CC(C)c1cc(Cc2cnc(N)nc2N)cc(C(C)C)c1N,177 to 180
11,O=C1CCC(N2Cc3c(OCc4ccc(CN5CCN(S(=O)(=O)C(F)(F)F)CC5)cc4)cccc3C2=O)C(=O)N1 (configuration not stated),135 to 137
12,Cc1c(Cl)nc2sc(SCc3ccccc3)nn2c1=O,102 to 104
13,CC(C)(C)C(=O)C(Br)c1ccccc1 (configuration not stated),38 to 42
14,O=S(=O)(c1ccc(Cl)cc1)C(c1cc(F)ccc1F)C1CCCCC1 (configuration not stated),107 to 109
15,CCSc1cc(C)nc(SCC)c1NC(=O)CCCCCCCCSc1nc2cccc(C(F)(F)F)c2o1,115 to 116
16,CS(=O)(=O)c1ccc(-c2cc(C(=O)c3cccnc3)sc2N2CCOCC2)cc1,122
17,CCCCOc1cc(CCC(=O)O)n(Cc2ccc(C(F)(F)F)cc2)n1,116 to 118
18,Cc1cc(I)ccc1Nc1c(C(=O)O)cc(F)c(F)c1F,206 to 210
19,CC(C)CCNC(=O)c1ccccc1-c1ccccc1CNC(=O)OCc1ccccc1,112
20,CC(=O)N1CCn2nc(-c3ccc(F)cc3)c(-c3ccncc3)c2N1,216 to 218
21,COC(=O)c1cn(-c2ccc(O)cc2C)c(C2CCC(Br)C(Br)C2)cc1=O (configuration not stated),197 to 200
22,COC(=O)N[C@@H]1CN2C(=O)N(c3cc(Cl)nc(Cl)c3)C(=O)[C@@]2(Cc2ccc(OC(F)(F)F)cc2)C1,120
23,Cc1nc2cnccc2n1-c1ccccc1,134 to 136
24,C=CCOc1cccc2nc(C)sc12,38 to 39
25,CC1(C)Cc2ccsc2C=[N+]1[O-],136 to 138

row,Structure (SMILES),melting point [°C]
1,COC(=O)c1nc(NC(C)=O)sc1-c1ccccc1,224 to 226
2,CCOc1cc2c(cc1OC)C(c1ccc(NS(=O)(=O)c3ccc(C)cc3)cc1)=N[C@H]1CCN(C)C[C@@H]21,207 to 219
3,OCc1cc2ccc3c4ccccc4ccc3c2s1,169 to 170
4,COc1ccc(CNS(=O)(=O)CCCCl)cc1,78 to 80
5,CN(C)c1ccc(NC(=O)N(CC2CCCCC2)C[C@H]2CCC[C@H](CN(CC3CCCCC3)C(=O)Nc3ccc(N(C)C)cc3)C2)cc1 (relative stereo),136 to 140
6,Cn1cc(-c2ccccc2)c(=O)c(-c2cc(Cl)cc(Cl)c2)c1,131 to 135
7,CCCCc1oc2ccccc2c1C(O)c1ccc(-c2ccc(OCC(=O)O)cc2)cc1 (configuration not stated),111 to 113
8,C=CCN1C(C)(C)CC(Oc2nc(OC3CC(C)(C)N(CC=C)C(C)(C)C3)nc(OC3CC(C)(C)N(CC=C)C(C)(C)C3)n2)CC1(C)C,218 to 219
9,O=S(=O)(c1ccccc1)N1CCC(C(Nc2ccc(F)cc2)c2ccc(F)cc2)CC1 (configuration not stated),175 to 176
10,CC(C)OP(=O)(Cc1c(C(C)(C)C)cc(O)cc1C(C)(C)C)OC(C)C,100
11,Cc1oc(-c2cc(C(F)(F)F)cc(C(F)(F)F)c2)nc1COc1cccc(CN(O)C(N)=O)c1,150 to 151
12,COc1ccc(Br)c(/C=C/c2cc(/C=C/c3ccc4cc[nH]c4c3)[nH]n2)c1,103 to 109
13,CC(C)(CC(=O)O)CC(=O)N[C@H](Cc1ccc(-c2ccccc2)cc1)C(=O)NCCCCNc1ncccn1,77 to 95
14,CN1C(c2ccncc2)CC(=O)CC1c1ccncc1 (configuration not stated),103 to 106
15,Cc1ccc(C(=O)Nc2ccc3c(c2NC(=O)c2ccc(C)cc2)C(=O)c2ccccc2C3=O)cc1,227 to 229
16,CCOc1cc(S(=O)(=O)CC)ccc1-c1nc2ncccc2[nH]1,207 to 208
17,CCOC(=O)C(C)OCc1cc2cc(C(F)(F)F)ccc2n1S(=O)(=O)c1cc(OC)ccc1OC (configuration not stated),130 to 132
18,COc1ccc([N+](=O)[O-])c(NC(C)=O)c1,129
19,Cn1cc(C(=O)C(Cl)Cl)c(=O)c(-c2cccc(Cl)c2)c1,201 to 202
20,OCCCCOc1ccc2cc(Nc3ccc(O)cc3)ccc2c1,132 to 135
21,Oc1ccc(-c2nn(-c3ccc(Br)cc3)c3cc(O)ccc23)c(O)c1,246
22,CC(=O)N(C(C)=O)c1c(OCc2ccccc2)cc(Br)cc1[N+](=O)[O-],148
23,O=C1NC(=O)c2ccc(I)cc2/C1=C/Nc1ccc(CN2CCCCC2)cc1,202 to 203
24,NS(=O)(=O)c1cc2nc(O)c(O)nc2c2ccccc12,> 300
25,COc1ccc(-c2ccc(O)c(C3(C)CCCCC3)c2)cc1CC1SC(N2CCCC2)=NC1=O (configuration not stated),121 to 122

row,Structure (SMILES),melting point [°C]
1,COCc1ccc(N=C2NCCN2)c(Cl)c1,108 to 110
2,CSc1ccc(-c2nn(Cc3ccccc3)c(=O)cc2-c2ccc(F)cc2)cc1,141
3,N#Cc1cccnc1N1CCN(CC(=O)Nc2cc(F)cc(C(F)(F)F)c2)CC1,108 to 110
4,CN1CCc2c(cccc2NC(=O)c2ccccc2F)C1,112
5,COc1cc2cc(CO)c(CO)c(-c3cccc(Br)n3)c2cc1OC,107 to 108
6,CC(C)[C@H](N)C(=O)NC(Cc1ccccc1)C(O)C(Cc1ccccc1)NC(=O)[C@@H](NC(=O)OCc1ccccc1)C(C)C (some centres not stated),126 to 127
7,C/C(=C\c1ccc(C(=O)OCCO)cc1)c1ccc2c(c1)C(C)(C)CCC2(C)C,138 to 139
8,O=C1OCc2c1cc1ccc(Cl)cc1c2-c1ccc(Cl)cc1,205 to 207
9,CCCCOc1cc2c(cc1C=Cc1ccc(C(=O)O)cc1)C(C)(C)CCC2(C)C,194 to 196
10,CCCn1c(=O)c2c(ncn2CC(O)CO)n(CCC)c1=O (configuration not stated),88 to 91
11,O=C(NCc1ccccc1)c1ccnc(N2CCN(CC3CC3)C2=O)c1,121 to 123
12,O=C1CN=C(c2ccccc2F)c2cc(Cl)ccc2N1CC(O)CO (configuration not stated),117 to 118
13,O=C(O)CCC(=O)c1ccc(-c2ccc(Br)cc2)cc1,198 to 200
14,COc1ccc2c(c1)c(C)c(CC(C)C(=O)O)n2Cc1ccc(Cl)cc1 (configuration not stated),128
15,O=C(Cc1c(-c2ccccc2)c2cc(O)c(Cl)cc2oc1=O)Nc1ccc(F)cc1C(F)(F)F,240 to 243
16,COc1ccc(C2CNCc3c(OC)cccc32)cc1OC (configuration not stated),106 to 112
17,COc1ccccc1-c1cnn2ccc(N3CCN(C(=O)OC(C)C)CC3)nc12,57 to 59
18,CNc1nc(NC(=O)NS(=O)(=O)c2ccccc2Cl)nc(OC)n1,224 to 228
19,NS(=O)(=O)c1ccc(-c2cn(-c3nc(-c4ccc(C(F)(F)F)cc4)cc(C(F)(F)F)n3)cn2)cc1,292
20,CCC(CC)Nc1nc2c(c(-c3c(C)cc(C)cc3C)cn2C)c(=O)n1C,174 to 176
21,COc1ccc(-c2cc(=Nc3ccc(OCC4CO4)cc3)n(C)c(=O)n2C)cc1OC (configuration not stated),155 to 157
22,COc1cc(C=C2SC(=O)NC2=O)cc(OC)c1O,248 to 249
